{
  "source": "patent US9603836B2",
  "about": "“Pyrrolidine-2, 5-dione derivatives, pharmaceutical compositions and methods for use as IDO1 inhibitors” (ITEOS THERAPEUTICS, priority 2014, dated 2017)",
  "key": {"4T1 tumors": {"tested_on": "4T1 tumors", "assay": "In vivo efficacy in 4T1 breast cancer syngeneic model", "parameters": "species or system Balb/c mice", "conditions": "4T1, 100 mg/kg BID oral", "procedure": "In vivo efficacy studies for Compounds of the present invention were performed on 4T1 syngeneic tumor model of Balb/c mice implanted orthotopically in the mammary gland. One hundred thousand 4T1 breast cancer cells (ATCC® CRL-2539™)] were implanted orthotopically within the mammary gland of 7 weeks old Balb/c mice (day 0). Animals were randomized based on tumor size when tumor average reached 60 mm^3 (between day 7 and 11) into different treatment cohorts. The Compound of the present invention was administered orally twice per day (approximately at 9 am and 5 pm) starting the day of randomization. The Compounds were suspended into Methocel™ cellulose ether vehicle and sonicated before oral administration to animals using gavage needles. Treatment was administered daily until the end of the study. All experimental animals were monitored for body weight changes twice weekly. Tumor volume was measured twice a week by a caliper device and calculated with the following formula: Tumor volume=0.5×(length×width^2). Studies were terminated before tumor volumes reached 2000 mm. TGI (% tumor growth inhibition) was determined as […]"}, "Kynurenine [1]": {"tested_on": "Kynurenine", "assay": "Inhibition of tryptophan degradation in 4T1 tumor tissue", "format": "in vivo, Balb/c mice", "conditions": "200 mg/kg oral twice per day, 4 h after administration", "procedure": "Compounds of this invention are capable of lowering kynurenine concentration within mouse tumors, for example 4T1 syngeneic tumors of Balb/c mice implanted orthotopically in the mammary gland. One hundred thousand 4T1 breast cancer cells were implanted orthotopically within the mammary gland of 7 weeks old Balb/c mice (day 0). Animals were randomized based on tumor size when tumor average reached 60 mm^3 (day 6) into different treatment cohorts (n=10/group). Animals were treated with Methocel vehicle from day 6 to 26 until tumors reached a size comprised between 1500 and 2000 mm^3. […] The tumor was removed, weighted and frozen on dry ice. Tumors were analyzed by LC/MS-MS for Kynurenine concentration."}, "PancO2 tumors": {"tested_on": "PancO2 tumors", "assay": "In vivo efficacy in PancO2 pancreatic cancer syngeneic model", "parameters": "species or system C57/B16 mice", "conditions": "PancO2, 200 mg/kg BID oral", "procedure": "In vivo efficacy studies of the Compounds of the present invention were performed on PancO2 syngeneic tumor model of C57/B16 mice implanted subcutaneously. Five millions PancO2 pancreas cancer cells were implanted subcutaneously to 7 weeks old C57/B16 mice (day 0). Animals were randomized based on tumor size when tumor average reached 60 mm^3 (between day 10 and 12) into different treatment cohorts. The Compound was administered orally twice per day (approximately at 9 am and 5 pm) starting the day of randomization. The Compound was suspended into Methocel vehicle and sonicated before oral administration to animals using gavage needles. Treatment was administered daily until the end of the study. All experimental animals were monitored for body weight changes weekly. Tumor volume was measured weekly using a caliper device and calculated with the following formula: Tumor volume=0.5×(length×width^2). Studies were terminated before tumor volumes reached 2000 mm. TGI (% tumor growth inhibition) was determined as\nTreatment was administered daily until the end of the study. Tumor volume was measured weekly using a caliper device and calculated with the following formula: Tumor volume=0.5×(length×width^2). Mice were considered as dead when tumor size reached 400 mm^3. […] SEM refers to standard error of measurement."}, "Kynurenine [2]": {"tested_on": "Kynurenine", "assay": "In-vivo inhibition of blood kynurenine levels in healthy mice", "parameters": "species or system mouse", "conditions": "two hours", "procedure": "The compounds of the present invention reduce the amount of Kynurenine in healthy mouse blood.\nBriefly, mice were treated with either a suspension of one of the compounds of the present invention in 0.5% hydroxypropyl methylcellulose (HPMC) K4M/0.25% Tween 20 at different doses, or with a vehicle control (0.5% HPMC K4M/0.25% Tween 20), by the oral route by gavage (dosing volume 5 mL/kg, 10 mice per group). After two hours, blood was harvested, plasma was prepared and the amount of Kynurenine present was determined by LC-MS-MS (HPLC column Unison UK-Phenyl, 75×4.6, 3 μm, flow rate 0.8 mL/min, 4 minutes gradient from water+0.2% acetic acid to methanol+0.1% formic acid, retention time 2.7 min; API4000™ MS-MS system from AB Sciex, ESI+ mode, parent ion 209.2, daughter ion 94.1)."}, "CT26 tumors": {"tested_on": "CT26 tumors", "assay": "Tumor growth inhibition in CT26 colon syngeneic mouse tumor model", "format": "in vivo, Balb/c mice", "description": "(§1) In the present study, CT26 syngeneic tumors were implanted subcutaneously in Balb-c mice. More particularly, Five hundred thousand (500,000) CT26 colon carcinoma cancer cells [CT26.WT, available from the ATCC® CRL-2628™] were implanted subcutaneously in 7 weeks old Balb/c mice (day 0). Animals were randomized based on tumor size when tumor average reached 150 mm^3 (day 11) into different treatment cohorts (n=10/group). […] The tumor was removed, weighted and frozen on dry ice. Tumors were analyzed by LC/MS-MS for Kynurenine concentration.\nIn a separate study, anti-tumor efficacy of IDO-1 inhibition was tested in the colon syngeneic mouse tumor model CT26 with a range of different treatment regimens. The model was essentially as described above, except that 1×10^6 cells in phosphate buffered saline (PBS) were implanted subcutaneously in the flank of 8 week old Balb/c females on day 0 (10 in each group). Mice were randomized into treatment groups (100 mg/kg BID, 200 mg/kg BID or 600 mg/kg BID) based on tumor size on day 9 when treatment started. The results are shown the following table and in FIG. 7."}, "Kynurenine [3]": {"tested_on": "Kynurenine", "assay": "Inhibition of tryptophan degradation in CT26 tumor tissue", "format": "in vivo, Balb/c mice", "conditions": "200 mg/kg oral twice per day, 2 h after administration", "description": "as §1"}},
  "data": [
    {"smiles": "O=C1CC(c2c[nH]c3ccc(F)cc23)C(=O)N1", "note": "(racemic) [Compound 1, 3-(5-fluoro-1H-indol-3-yl)pyrrolidine-2,5-dione]", "values": [
      {"measurement": "Mean tumor volume on day 25", "setting": "4T1 tumors", "value": 443.7, "unit": "mm^3"},
      {"measurement": "TGI (Tumor growth inhibition)", "setting": "4T1 tumors; day 25", "value": 43.4, "unit": "%"},
      {"measurement": "Kynurenine concentration (ng/g tumor) Average ± SEM", "setting": "Kynurenine [1]", "value": "417.2 ± 55.7", "unit": "ng/g tumor"},
      {"measurement": "reduction of Kynurenine concentration", "setting": "Kynurenine [1]", "value": 47, "unit": "%"},
      {"measurement": "Mean tumor volume on day 42", "setting": "PancO2 tumors", "value": 457.0, "unit": "mm^3"},
      {"measurement": "TGI (Tumor growth inhibition)", "setting": "PancO2 tumors; day 42", "value": 26.2, "unit": "%"},
      {"measurement": "Kynurenine concentration in plasma (average ± standard error of the mean)", "setting": "Kynurenine [2]; 100 mg/kg oral", "value": "111.1 ± 27.0", "unit": "ng/mL"},
      {"measurement": "inhibition of circulating Kynurenine", "setting": "Kynurenine [2]; 100 mg/kg oral", "value": 41, "unit": "%"},
      {"measurement": "Kynurenine concentration in plasma (average ± standard error of the mean)", "setting": "Kynurenine [2]; 200 mg/kg oral", "value": "77.7 ± 9.2", "unit": "ng/mL"},
      {"measurement": "inhibition of circulating Kynurenine", "setting": "Kynurenine [2]; 200 mg/kg oral", "value": 59, "unit": "%"},
      {"measurement": "% TGI (D15)", "setting": "CT26 tumors; CT26, 100 mg/kg BID", "value": 29, "unit": "%"},
      {"measurement": "% TGI (D17)", "setting": "CT26 tumors; CT26, 100 mg/kg BID", "value": 33, "unit": "%"},
      {"measurement": "% TGI (D20)", "setting": "CT26 tumors; CT26, 100 mg/kg BID", "value": 20, "unit": "%"},
      {"measurement": "% TGI (D15)", "setting": "CT26 tumors; CT26, 200 mg/kg BID", "value": 38, "unit": "%"},
      {"measurement": "% TGI (D17)", "setting": "CT26 tumors; CT26, 200 mg/kg BID", "value": 41, "unit": "%"},
      {"measurement": "% TGI (D20)", "setting": "CT26 tumors; CT26, 200 mg/kg BID", "value": 34, "unit": "%"},
      {"measurement": "% TGI (D15)", "setting": "CT26 tumors; CT26, 600 mg/kg BID", "value": 36, "unit": "%"},
      {"measurement": "% TGI (D17)", "setting": "CT26 tumors; CT26, 600 mg/kg BID", "value": 51, "unit": "%"},
      {"measurement": "% TGI (D20)", "setting": "CT26 tumors; CT26, 600 mg/kg BID", "value": 38, "unit": "%"},
      {"measurement": "Kynurenine concentration (ng/g tumor) Average ± SEM", "setting": "Kynurenine [3]", "value": "876 ± 68", "unit": "ng/g tumor"},
      {"measurement": "reduction of Kynurenine concentration", "setting": "Kynurenine [3]", "value": 59, "unit": "%"}
    ]}
  ]
}
